Assay: photoluminescence quantum yield (fraction); solvent given as SMILES
[1] = in O=P(c1ccccc1)(c1ccccc1)c1ccc2oc3ccc(P(=O)(c4ccccc4)c4ccccc4)cc3c2c1

For CCC1=C(CC)c2cccc3c2c(cc2nc4ccccc4nc23)O1, which photoluminescence quantum yield (in ClCCl) is on record?
The photoluminescence quantum yield was 0.47.

With C[C@@]12SC(Cl)=CC1=c1nc(-c3ccccc3)[nH]c1=C1C=C(Cl)S[C@]12C as the compound, how does the photoluminescence quantum yield (in CC#N) read?
The photoluminescence quantum yield was 0.014.

Which photoluminescence quantum yield (in C1CCCCC1) does the source give for CN(C)c1ccc(-c2ccc(-c3nc(C#N)c(C#N)n3C)cc2)cc1 here?
The photoluminescence quantum yield was 0.98.

What about the photoluminescence quantum yield (in CC#N) of the same compound?
Its photoluminescence quantum yield is 0.013.

And the photoluminescence quantum yield (in CO)?
The photoluminescence quantum yield was 0.011.

And the photoluminescence quantum yield (in ClC(Cl)Cl)?
The photoluminescence quantum yield was 0.73.

With c1ccc(-c2nc3sc4ccccc4c3s2)cc1 as the compound, how does the photoluminescence quantum yield (in CS(C)=O) read?
The photoluminescence quantum yield was 0.89.

For CC(C)[Si](C#Cc1c2ccc(C(C)(C)C)cc2c(C#Cc2c3ccc(C(C)(C)C)cc3c(C#C[Si](C(C)C)(C(C)C)C(C)C)c3ccc(C(C)(C)C)cc23)c2ccc(C(C)(C)C)cc12)(C(C)C)C(C)C, which photoluminescence quantum yield (in Cc1ccccc1) is on record?
Its photoluminescence quantum yield is 0.02.

Which photoluminescence quantum yield (in C1CCCCC1) does the source give for COc1ccc2c3c(c4ccc(OC)cc4c2c1)C1(c2ccccc2-c2ccccc21)c1ccccc1-3 here?
The photoluminescence quantum yield was 0.21.

Which photoluminescence quantum yield (in CCCO) does the source give for CCOC(=O)c1ccc2c(c1)sc1c3ccc(C(=O)OCC)cc3n(C)c21 here?
The photoluminescence quantum yield was 0.65.

Which photoluminescence quantum yield (in CCO) does the source give for Cc1nc2cc3c4c(cccc4c2o1)C(=O)OC3=O here?
Its photoluminescence quantum yield is 0.1.

For COc1cccc(-c2c3ccccc3c3n2[B-](F)(F)[N+]2=Cc4c5ccccc5c(-c5cccc(OC)c5)n4[B-](F)(F)[N+]2=C3)c1, which photoluminescence quantum yield (in CC#N) is on record?
Its photoluminescence quantum yield is 0.24.

What about the photoluminescence quantum yield (in CCCCCC) of the same compound?
The photoluminescence quantum yield was 0.34.

And the photoluminescence quantum yield (in CN(C)C=O)?
Its photoluminescence quantum yield is 0.27.

And the photoluminescence quantum yield (in Cc1ccccc1)?
The photoluminescence quantum yield was 0.34.

And the photoluminescence quantum yield (in ClCCl)?
The photoluminescence quantum yield was 0.36.

For CC1=CC(C)=[N+]2C1=C(c1ccc(I)cc1)c1c(C)cc(C)n1[B-]2(Oc1ccccc1)Oc1ccccc1, which photoluminescence quantum yield (in ClC(Cl)Cl) is on record?
The photoluminescence quantum yield was 0.06.

Which photoluminescence quantum yield (in ClCCl) does the source give for O=Cc1ccc(/C=C/c2nc(N3CCOCC3)c3c([n+]2[O-])CCCC3)cc1 here?
Its photoluminescence quantum yield is 0.025.

Which photoluminescence quantum yield (in C1CCOC1) does the source give for CCCCCCc1ccc(-n2c3[n+](c4c5ccccc5c5ccccc5c42)[B-](C)(C)c2ccccc2-3)cc1 here?
The photoluminescence quantum yield was 0.45.

What about the photoluminescence quantum yield (in CC#N) of the same compound?
The photoluminescence quantum yield was 0.28.

What about the photoluminescence quantum yield (in Cc1ccccc1) of the same compound?
The photoluminescence quantum yield was 0.46.

And the photoluminescence quantum yield (in ClCCl)?
Its photoluminescence quantum yield is 0.38.

For COc1cc(/C=C/CO)ccc1O, which photoluminescence quantum yield (in O) is on record?
Its photoluminescence quantum yield is 0.1.

Which photoluminescence quantum yield (in CC1CCCCC1) does the source give for c1ccc2c(c1)Sc1ccc(-n3c4ccccc4c4ccccc43)cc1S2 here?
The photoluminescence quantum yield was 0.04.

And the photoluminescence quantum yield (in c1cc(-c2cccc(-n3c4ccccc4c4ccccc43)c2)cc(-n2c3ccccc3c3ccccc32)c1)?
Its photoluminescence quantum yield is 0.1.

With Cc1ccc2c(c1)C1(c3ccccc3Oc3ccccc31)c1cc(C)ccc1N2c1ccc(-c2nc(-c3ccccc3)cc(-c3ccccc3)n2)cc1 as the compound, how does the photoluminescence quantum yield [1] read?
The photoluminescence quantum yield was 0.69.

Which photoluminescence quantum yield (in ClCCl) does the source give for COc1ccc(-c2ccc(C(=O)NC(C)(C)C)c3c2ccc2c4ccccc4c4ccccc4c23)cc1 here?
Its photoluminescence quantum yield is 0.21.

For CC(C)c1cc(C(C)C)c(B2c3ccccc3Oc3cc(-n4c5ccccc5c5ccc6c(c7ccccc7n6-c6ccccc6)c54)ccc32)c(C(C)C)c1, which photoluminescence quantum yield (in CC(C)c1cc(C(C)C)c(-c2ccc(-n3c4ccccc4n4c5ccccc5nc34)nc2)c(C(C)C)c1) is on record?
Its photoluminescence quantum yield is 0.506.

What about the photoluminescence quantum yield (in O=P(c1ccccc1)(c1ccccc1)c1ccccc1Oc1ccccc1P(=O)(c1ccccc1)c1ccccc1) of the same compound?
Its photoluminescence quantum yield is 0.631.

With CN(C)c1ccc(/C=C/c2nc3c(ccc4ccccc43)s2)cc1 as the compound, how does the photoluminescence quantum yield (in C1CCCCC1) read?
The photoluminescence quantum yield was 0.012.

And the photoluminescence quantum yield (in CC#N)?
Its photoluminescence quantum yield is 0.008.

Which photoluminescence quantum yield (in C1CCCCC1) does the source give for COC(=O)c1noc(-c2ccccc2)c1Cl here?
Its photoluminescence quantum yield is 0.368.

For Cc1cc(C)c([B-]2(c3c(C)cc(C)cc3C)[O+]=P(c3ccccc3)(c3ccccc3)c3ccsc3-c3sccc32)c(C)c1, which photoluminescence quantum yield (in C1CCOC1) is on record?
The photoluminescence quantum yield was 0.23.

Which photoluminescence quantum yield (in CC#N) does the source give for c1ccc(-c2csc(-c3ccncc3)n2)cc1 here?
Its photoluminescence quantum yield is 0.558.

And the photoluminescence quantum yield (in CCO)?
The photoluminescence quantum yield was 0.048.

What about the photoluminescence quantum yield (in CN(C)C=O) of the same compound?
The photoluminescence quantum yield was 0.041.

What about the photoluminescence quantum yield (in CS(C)=O) of the same compound?
Its photoluminescence quantum yield is 0.

And the photoluminescence quantum yield (in ClCCl)?
The photoluminescence quantum yield was 0.28.

What does the source list for CCn1c2ccccc2c2cc(-c3cc(-c4ccc5c(c4)c4ccccc4n5CC)nc(SC)n3)ccc21?
photoluminescence quantum yield (in C1CCOC1): 0.23; photoluminescence quantum yield (in CCOC(C)=O): 0.39; photoluminescence quantum yield (in CN(C)C=O): 0.46; photoluminescence quantum yield (in Cc1ccccc1): 0.35; photoluminescence quantum yield (in ClCCl): 0.31

Which photoluminescence quantum yield (in C1CCOC1) does the source give for Cc1cccc2[n+]1[B-](F)(F)n1c(c3cccc4cccc1c43)=N2 here?
Its photoluminescence quantum yield is 0.99.

What about the photoluminescence quantum yield (in CC#N) of the same compound?
The photoluminescence quantum yield was 0.99.

What about the photoluminescence quantum yield (in CCCCCC) of the same compound?
Its photoluminescence quantum yield is 0.99.

What about the photoluminescence quantum yield (in Cc1ccccc1) of the same compound?
Its photoluminescence quantum yield is 0.99.

What about the photoluminescence quantum yield (in ClCCl) of the same compound?
The photoluminescence quantum yield was 0.99.

What does the source list for Cc1cc(C)c(C2=C3C=c4c(c5ccc(C(C)(C)C)cc5c5cc(C(C)(C)C)ccc45)=[N+]3[B-](F)(F)n3c2cc2c4ccc(C(C)(C)C)cc4c4cc(C(C)(C)C)ccc4c23)c(C)c1?
photoluminescence quantum yield (in C1CCCCC1): 0.3; photoluminescence quantum yield (in C1CCOC1): 0.25; photoluminescence quantum yield (in CC#N): 0.24; photoluminescence quantum yield (in Cc1ccccc1): 0.29; photoluminescence quantum yield (in ClCCl): 0.25

Which photoluminescence quantum yield (in CO) does the source give for COC(=O)c1cc(OC)ccc1OC here?
Its photoluminescence quantum yield is 0.64.

With c1ccc(-n2c3ccccc3c3ccccc32)cc1 as the compound, how does the photoluminescence quantum yield (in CCO) read?
The photoluminescence quantum yield was 0.46.

With CCCCC(CC)COc1ccc2nc(-c3ccc(-c4cccs4)s3)sc2c1 (centres undefined) as the compound, how does the photoluminescence quantum yield (in ClCCl) read?
Its photoluminescence quantum yield is 0.2.

For CC1(C)CC(/C=C/c2ccc(-n3c4ccccc4c4ccccc43)cc2)=CC(=C(C#N)C#N)C1, which photoluminescence quantum yield (in CCO) is on record?
Its photoluminescence quantum yield is 0.005.

For CCC1(CC)c2cc(/C=C/c3ccc(/C=C/c4ccc5c(c4)C(CC)(CC)c4cc(N6c7ccccc7Sc7ccccc76)ccc4-5)cc3)ccc2-c2ccc(N3c4ccccc4Sc4ccccc43)cc21, which photoluminescence quantum yield (in C1CCOC1) is on record?
Its photoluminescence quantum yield is 0.33.

What about the photoluminescence quantum yield (in CC#N) of the same compound?
The photoluminescence quantum yield was 0.26.

What about the photoluminescence quantum yield (in CCCCCC) of the same compound?
Its photoluminescence quantum yield is 0.72.

What about the photoluminescence quantum yield (in Cc1ccccc1) of the same compound?
The photoluminescence quantum yield was 0.58.

What about the photoluminescence quantum yield (in ClCCl) of the same compound?
The photoluminescence quantum yield was 0.33.

With c1ccc(-c2nc(-c3ccccc3)nc(-c3ccc(-n4c5ccccc5c5ccc6c7ccccc7n(-c7ccccc7)c6c54)cc3)n2)cc1 as the compound, how does the photoluminescence quantum yield [1] read?
Its photoluminescence quantum yield is 0.84.

Which results are given for NS(=O)(=O)c1ccc(N2N=C(c3ccc(O)cc3)CC2c2ccccc2)cc1 (centres undefined)?
photoluminescence quantum yield (in C1CCOC1): 0.65; photoluminescence quantum yield (in C1COCCO1): 0.63; photoluminescence quantum yield (in CC#N): 0.6; photoluminescence quantum yield (in CC(C)O): 0.44; photoluminescence quantum yield (in CCO): 0.36; photoluminescence quantum yield (in CCOC(C)=O): 0.66; photoluminescence quantum yield (in CN(C)C=O): 0.68; photoluminescence quantum yield (in CO): 0.28; photoluminescence quantum yield (in CS(C)=O): 0.7; photoluminescence quantum yield (in O): 0.41

With COc1ccc(/C=C/c2nc(N3CCOCC3)c3c([n+]2[O-])CCCC3)cc1 as the compound, how does the photoluminescence quantum yield (in ClCCl) read?
Its photoluminescence quantum yield is 0.12.

Which photoluminescence quantum yield (in C1CCCCC1) does the source give for c1cc2ccc3cc4cccc5ccc6cc(c1)c2c3c6c54 here?
The photoluminescence quantum yield was 0.31.

And the photoluminescence quantum yield (in CC#N)?
Its photoluminescence quantum yield is 0.32.

What about the photoluminescence quantum yield (in CO) of the same compound?
Its photoluminescence quantum yield is 0.38.

And the photoluminescence quantum yield (in Cc1ccccc1)?
Its photoluminescence quantum yield is 0.47.

What about the photoluminescence quantum yield (in ClCCl) of the same compound?
Its photoluminescence quantum yield is 0.24.

Which photoluminescence quantum yield (in C1COCCO1) does the source give for c1ccc(-c2nc(-c3ccc(-c4ccc(-c5ccc(-c6nc(-c7ccccc7)c(-c7ccccc7)o6)cc5)cc4)cc3)oc2-c2ccccc2)cc1 here?
Its photoluminescence quantum yield is 0.73.

For CCOC(=O)c1ccc2c(c1)[nH]c1c3ccc(C(=O)OCC)cc3[nH]c21, which photoluminescence quantum yield (in CCCO) is on record?
Its photoluminescence quantum yield is 0.57.

Which photoluminescence quantum yield (in CC#N) does the source give for Cc1cccc(-c2[nH]c(=O)n3c2-c2ccccc2C3=O)c1O here?
The photoluminescence quantum yield was 0.52.

And the photoluminescence quantum yield (in CO)?
The photoluminescence quantum yield was 0.15.

What about the photoluminescence quantum yield (in ClCCl) of the same compound?
Its photoluminescence quantum yield is 0.6.

Which photoluminescence quantum yield (in ClCCl) does the source give for COc1cccc2cc(C)c3c4ccccc4[nH]c3c12 here?
Its photoluminescence quantum yield is 0.284.

Which photoluminescence quantum yield (in CC#N) does the source give for CCCC(=O)c1c2c(c(C(=O)CCC)c3c1OC(CC(=O)OC)(C(=O)O)O3)OCO2 here?
The photoluminescence quantum yield was 0.25.

What about the photoluminescence quantum yield (in CCO) of the same compound?
Its photoluminescence quantum yield is 0.12.

And the photoluminescence quantum yield (in CO)?
The photoluminescence quantum yield was 0.06.

What about the photoluminescence quantum yield (in O) of the same compound?
Its photoluminescence quantum yield is 0.02.

Which photoluminescence quantum yield (in CCO) does the source give for O=C(O)COc1cccc(OCC(=O)O)c1-c1c2ccc(=[N+]3CCCCC3)cc-2oc2cc(N3CCCCC3)ccc12 here?
Its photoluminescence quantum yield is 0.49.

What about the photoluminescence quantum yield (in O) of the same compound?
The photoluminescence quantum yield was 0.13.

Which photoluminescence quantum yield (in O) does the source give for CN(C)c1ccc2[c](c1)[Sn]([CH3])([CH3])[C]1=CC(=[N+](C)C)C=CC1=C2 here?
Its photoluminescence quantum yield is 0.43.

Which photoluminescence quantum yield (in CC#N) does the source give for CC1=CC(/C=C/c2ccc([N+](C)(C)C)cc2)=[N+]2C1=C(c1ccc(I)cc1)c1c(C)cc(/C=C/c3ccc([N+](C)(C)C)cc3)n1[B-]2(F)F here?
Its photoluminescence quantum yield is 0.69.

With N#Cc1nc(N(Cc2ccc(I)cc2)Cc2ccc(I)cc2)c(C#N)nc1N(Cc1ccc(I)cc1)Cc1ccc(I)cc1 as the compound, how does the photoluminescence quantum yield (in ClC(Cl)Cl) read?
Its photoluminescence quantum yield is 0.79.

Reference: the Deep4Chem optical property database
